Source: patent publication US6914045B2, “Glycopeptide antibiotics” (Wyeth Holdings Corporation, priority 2001, dated 2005)
In brackets after ≈: the same amount, converted by molar mass.

Key:
Assay in all cases: in vitro antibacterial evaluation, MIC by broth dilution
Format in all cases: cell-based
Enterococcus sp. = settings: broth dilution, 18 hours at 35° C.
Method in brief: (§1)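 Test organisms, which included recent clinical isolates resistant to methicillin, penicillin and/or vancomycin, were inoculated at 5×10^5 CFU/mL into Muller-Hinton II […] containing antibiotic at 64-0.06 μg/mL. Minimum inhibitory concentrations were then read as the lowest level inhibiting growth.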

Staphylococcus sp. = settings: broth dilution, 18 hours at 35° C.
Method in brief: as §1

Streptococcus sp. = settings: broth dilution, 18 hours at 35° C.
Method in brief: as §1

Escherichia coli = settings: 18 hours at 35° C.

MIC Enterococcus avium (GC 4558) (Enterococcus sp.): 16 µg/mL (≈ 11.5 µM)
MIC Enterococcus faecalis (ATCC 29212) (Enterococcus sp.): 16 µg/mL (≈ 11.5 µM)
MIC Enterococcus faecalis (GC 2242) (Enterococcus sp.): 16 µg/mL (≈ 11.5 µM)
MIC Enterococcus faecalis (GC 2691) (Enterococcus sp.): 16 µg/mL (≈ 11.5 µM)
MIC Enterococcus faecalis (GC 3059) (Enterococcus sp.): 32 µg/mL (≈ 23 µM)
MIC Enterococcus faecalis (GC 4552) (Enterococcus sp.): 16 µg/mL (≈ 11.5 µM)
MIC Enterococcus faecalis (GC 4553) (Enterococcus sp.): 32 µg/mL (≈ 23 µM)
MIC Enterococcus faecalis (GC 4554) (Enterococcus sp.): 32 µg/mL (≈ 23 µM)
MIC Enterococcus faecalis (GC 6189) (Enterococcus sp.): 16 µg/mL (≈ 11.5 µM)
MIC Enterococcus faecium (GC 2243) (Enterococcus sp.): 16 µg/mL (≈ 11.5 µM)
MIC Enterococcus faecium (GC 4556) (Enterococcus sp.): 16 µg/mL (≈ 11.5 µM)
MIC Enterococcus faecium (GC 4557) (Enterococcus sp.): 8 µg/mL (≈ 5.74 µM)
MIC Enterococcus faecalis (ATCC 29212) (Enterococcus sp.; inoculum 5×10^5 CFU/mL, strain ATCC 29212): 16 µg/mL (≈ 11.5 µM)
MIC Enterococcus faecalis (GC 2242) (Enterococcus sp.; inoculum 5×10^5 CFU/mL, strain GC 2242): 16 µg/mL (≈ 11.5 µM)
MIC Enterococcus faecium (GC 2243) (Enterococcus sp.; inoculum 5×10^5 CFU/mL, strain GC 2243): 16 µg/mL (≈ 11.5 µM)
MIC Enterococcus faecalis (GC 2691) (Enterococcus sp.; inoculum 5×10^5 CFU/mL, strain GC 2691): 16 µg/mL (≈ 11.5 µM)
MIC Enterococcus faecalis (GC 3059) (Enterococcus sp.; inoculum 5×10^5 CFU/mL, strain GC 3059): 32 µg/mL (≈ 23 µM)
MIC Enterococcus faecalis (GC 4552) (Enterococcus sp.; inoculum 5×10^5 CFU/mL, strain GC 4552): 16 µg/mL (≈ 11.5 µM)
MIC Enterococcus faecalis (GC 4553) (Enterococcus sp.; inoculum 5×10^5 CFU/mL, strain GC 4553): 32 µg/mL (≈ 23 µM)
MIC Enterococcus faecalis (GC 4554) (Enterococcus sp.; inoculum 5×10^5 CFU/mL, strain GC 4554): 32 µg/mL (≈ 23 µM)
MIC Enterococcus faecium (GC 4556) (Enterococcus sp.; inoculum 5×10^5 CFU/mL, strain GC 4556): 16 µg/mL (≈ 11.5 µM)
MIC Enterococcus faecium (GC 4557) (Enterococcus sp.; inoculum 5×10^5 CFU/mL, strain GC 4557): 8 µg/mL (≈ 5.74 µM)
MIC Enterococcus avium (GC 4558) (Enterococcus sp.; inoculum 5×10^5 CFU/mL, strain GC 4558): 16 µg/mL (≈ 11.5 µM)
MIC Enterococcus faecalis (GC 6189) (Enterococcus sp.; inoculum 5×10^5 CFU/mL, strain GC 6189): 16 µg/mL (≈ 11.5 µM)
MIC Staphylococcus aureus (ATCC 29213) (Staphylococcus sp.; strain ATCC 29213): 4 µg/mL (≈ 2.87 µM)
MIC Staphylococcus aureus (GC 1131) (Staphylococcus sp.; strain GC 1131): 4 µg/mL (≈ 2.87 µM)
MIC Staphylococcus aureus (GC 3051) (Staphylococcus sp.; strain GC 3051): 4 µg/mL (≈ 2.87 µM)
MIC Staphylococcus aureus (GC 3053) (Staphylococcus sp.; strain GC 3053): 8 µg/mL (≈ 5.74 µM)
MIC Staphylococcus aureus (GC 4541) (Staphylococcus sp.; strain GC 4541): 4 µg/mL (≈ 2.87 µM)
MIC Staphylococcus aureus (GC 4542) (Staphylococcus sp.; strain GC 4542): 4 µg/mL (≈ 2.87 µM)
MIC Staphylococcus aureus-SMITH (GC 4543) (Staphylococcus sp.; strain GC 4543): 2 µg/mL (≈ 1.44 µM)
MIC Staphylococcus aureus (GC 4544) (Staphylococcus sp.; strain GC 4544): 8 µg/mL (≈ 5.74 µM)
MIC Staphylococcus aureus (GC 4545) (Staphylococcus sp.; strain GC 4545): 4 µg/mL (≈ 2.87 µM)
MIC Coagulase Negative Staphylococcus (GC 4547) (Staphylococcus sp.; strain GC 4547): 4 µg/mL (≈ 2.87 µM)
MIC Coagulase Negative Staphylococcus (GC 4548) (Staphylococcus sp.; strain GC 4548): 1 µg/mL (≈ 0.718 µM)
MIC Coagulase Negative Staphylococcus (GC 4549) (Staphylococcus sp.; strain GC 4549): 2 µg/mL (≈ 1.44 µM)
MIC Coagulase Negative Staphylococcus (GC 4551) (Staphylococcus sp.; strain GC 4551): 8 µg/mL (≈ 5.74 µM)
MIC Streptococcus agalactiae (GC 4564) (Streptococcus sp.): 2 µg/mL (≈ 1.44 µM)
MIC Streptococcus pneumoniae (ATCC 6301) (Streptococcus sp.): 1 µg/mL (≈ 0.718 µM)
MIC Streptococcus pneumoniae (GC 1894) (Streptococcus sp.): 0.25 µg/mL (≈ 0.179 µM)
MIC Streptococcus pneumoniae (GC 4565) (Streptococcus sp.): 0.5 µg/mL (≈ 0.359 µM)
MIC Streptococcus pyogenes (GC 4563) (Streptococcus sp.): 1 µg/mL (≈ 0.718 µM)
MIC Streptococcus pneumoniae (ATCC 6301) (Streptococcus sp.; inoculum 5×10^5 CFU/mL, strain ATCC 6301): 1 µg/mL (≈ 0.718 µM)
MIC Streptococcus pneumoniae (GC 1894) (Streptococcus sp.; inoculum 5×10^5 CFU/mL, strain GC 1894): 0.25 µg/mL (≈ 0.179 µM)
MIC Streptococcus pyogenes (GC 4563) (Streptococcus sp.; inoculum 5×10^5 CFU/mL, strain GC 4563): 1 µg/mL (≈ 0.718 µM)
MIC Streptococcus agalactiae (GC 4564) (Streptococcus sp.; inoculum 5×10^5 CFU/mL, strain GC 4564): 2 µg/mL (≈ 1.44 µM)
MIC Streptococcus pneumoniae (GC 4565) (Streptococcus sp.; inoculum 5×10^5 CFU/mL, strain GC 4565): 0.5 µg/mL (≈ 0.359 µM)
MIC Escherichia coli (ATCC 25922) (Escherichia coli): 64 µg/mL (≈ 45.9 µM)
MIC Escherichia coli (GC 4559) (Escherichia coli): 32 µg/mL (≈ 23 µM)
MIC Escherichia coli (GC 4560) (Escherichia coli): 2 µg/mL (≈ 1.44 µM)
SMILES: CC(c1ccccc1)C1NC(=O)CNC(=O)C(CO)NC(=O)C(C(O)C2CNC(=N)N2C2OC(CO)C(O)C(O)C2O)NC(=O)C(C(O)C2CNC(=N)N2)NC(=O)C(Cc2ccc(OC3OC(CO)C(OC4OC5COC6(CCSCC6)OC5C(O)C4O)C(O)C3O)cc2)NC1=O (stereo not drawn) [Example 217]
MIC Staphylococcus haemolyticus (GC 4546) (Staphylococcus sp.; strain GC 4546): 2 µg/mL (≈ 1.44 µM)
